From patent US8354381B2, “Peptide compositions for oral care systems” (E I du Pont de Nemours and Company, priority 2009, dated 2013)

Test system: pellicle coated bovine enamel
Experiment: Phage ELISA on pellicle coated bovine enamel (Example 6)
Format: binding, human
Conditions: 10^11 pfu phage, 30 min in vivo pellicle on bovine enamel, normalized to an internal control
Method: A total of 29 selected phage candidates from Table 5 were used in phage ELISA Experiment to determine binding affinity and coverage of each phage on pellicle substrates. Purified phage lysates were used for binding to pellicle coated bovine enamel using an anti-M13 phage antibody conjugated to horseradish-peroxidase, followed by the addition of chromogenic agent TMB. The plates were read at A450 nm.
The wells were filled with 1 mL of 10^11 pfu purified phage stock which was prepared by diluting in blocking buffer. […] The non-binding phage was removed by washing 5 times with PBST. […] The conjugate solution was removed and was washed 3 times with PBST.

| Sequence | O.D.450 (normalized) |
| --- | --- |
| TTGSSSQADTSASMSIVPAH (Synthetic oral-surface binding peptide) [DenP17] | 0.971 |
| AVVPADLNDHANHLS (Synthetic oral-surface binding peptide) [DenP10] | 1.619 |
| HKNENIMQYNVNDRWHITPA (Synthetic oral-surface binding peptide) [DenP32] | 1.441 |
| SEARARTFNDHTTPMPII (Synthetic oral-surface binding peptide) [DenP14] | 2.498 |
| SNATMYNIQSHSHHQ (Synthetic oral-surface binding peptide) [DenP24] | 0.979 |
| HKNAIQPVNDATTLDTTM (Synthetic oral-surface binding peptide) [DenP9] | 1.364 |
| TYQGVPSWPAVIDDAIRR (Synthetic oral-surface binding peptide) [DenP19] | 1.052 |
| GPQHVLMQDTHQGYAFDN (Synthetic oral-surface binding peptide) [DenP16] | 2.190 |
| VEPATKNMREARSSTQMRRI (Synthetic oral-surface binding peptide) [DenP4] | 1.421 |
| APPTYQTASYPHNLPSKRKM (Synthetic oral-surface binding peptide) [DenP28] | 1.203 |
| ANELSTYAQTNPGSG (Synthetic oral-surface binding peptide) [DenP25] | 0.909 |
| VNPNWVETQALHQPPGNT (Synthetic oral-surface binding peptide) [DenP20] | 1.298 |
| DLGTFPNRTLKMAAH (Synthetic oral-surface binding peptide) [DenP11] | 1.663 |
| GMPTRYYHNTPPHLTPKF (Synthetic oral-surface binding peptide) [DenP8] | 1.182 |
| IYPNESMSTSNVRGPYHP (Synthetic oral-surface binding peptide) [DenP22] | 1.420 |
| IPWWNIRAPLNAGGG [Control, reference compound] | 1.000 |
| QVPDYLSPTHQKKAFLEIPT (Synthetic oral-surface binding peptide) [DenP29] | 0.976 |
| DHNNRQHAVEVRENKTHTAR (Synthetic oral-surface binding peptide) [DenP21] | 0.728 |
| HDPNHLTHQARTIYRNANHT (Synthetic oral-surface binding peptide) [DenP23] | 1.236 |
| QAAQVHMMQHSRPTT (Synthetic oral-surface binding peptide) [DenP13] | 0.845 |
| YLLPKDQTTAPQVTPIVQHK (Synthetic oral-surface binding peptide) [DenP5] | 1.087 |
| ELDHDSRHYMNGLQRKVT (Synthetic oral-surface binding peptide) [DenP15] | 1.112 |
| DTIHPNKMKSPSSPL (Synthetic oral-surface binding peptide) [DenP26] | 1.039 |
| NGNNHTDIPNRSSYTGGSFA (Synthetic oral-surface binding peptide) [DenP1] | 1.002 |
| FDGIGLGTATRHQNR (Synthetic oral-surface binding peptide) [DenP12] | 2.079 |
| TNDLHANPFTGTYIAPDPTS (Synthetic oral-surface binding peptide) [DenP30] | 1.082 |
| KAPIANMLQPHSYQYSVA (Synthetic oral-surface binding peptide) [DenP18] | 1.143 |
| TMTNHVYNSYTEKHSSTHRS (Synthetic oral-surface binding peptide) [DenP2] | 1.951 |
| EFPYYNDNPPNPERHTLR (Synthetic oral-surface binding peptide) [DenP7] | 1.500 |
